This note sets out measurements from PMC10447463, “Data-mining unveils structure–property–activity correlation of viral infectivity enhancing self-assembling peptides” (Nature Communications, 2023).

Data set [1] can be described thus: Zeta-potential measurement. The note with it: for Zeta pot. / mV: 1 mg/mL in PBS pH 7.4 from 10 mg/mL DMSO stock, 1 d RT, 60 µL diluted in 600 µL 1 mM KCl, Zetasizer Nano ZS, Smoluchowski, mean of triplicate; for Zeta-Potential / mV: mean, Figure 7B. The format is physicochemical. In a few lines:
(§1)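 One-day room-temperature aggregation at 1 mg/mL in PBS (pH 7.4) preceded measurement; samples then went into 1 mM KCl. Triplicates per sample, two independent experiments averaged.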

Data set [2] can be described thus: Turbidity, derived count rate of scattered light. The format is physicochemical. The note with it: for Count Rate / kcps: derived count rate of scattered light at 633 nm, 173°, from zeta-potential measurement, 0.1 mg/mL in 1 mM KCl after 1 d at 1 mg/mL in PBS, turbidity / microscopic aggregation, mean of triplicate. In a few lines:
as §1

Data set [3] concerns HIV-1 infection of TZM-bl cells. The data set is described as follows: HIV-1 infectivity enhancement assay, β-galactosidase luminescence. The following applies: for Log10 Infection Rel EF-C: log10 of infection relative to EF-C, Figure 7B; for Inf. rel. EF-C: n-fold infection vs virus only, relative to that of EF-C, 1.3 µM peptide. It is filed as cell-based.

Consider DFNKF [reference compound], for which, in data set [1], the “Zeta pot. / mV” value was -11.8 mV and the “Zeta-Potential / mV” value was -11.77 mV. Besides, the “Count Rate / kcps” value in data set [2] came to 1065 kcps. In data set [3], the “Log10 Infection Rel EF-C” value is on record as -1.07 and the “Inf. rel. EF-C” value is 0.08.
As for GAITIG-NH2 [reference compound], in data set [1], the “Zeta pot. / mV” value is reported as -5.4 mV and the “Zeta-Potential / mV” value is -5.36 mV. Moreover, the “Count Rate / kcps” value in data set [2] was found to be 30 kcps. For the same substance, in data set [3], the “Log10 Infection Rel EF-C” value is given as -1.35 and the “Inf. rel. EF-C” value stood at 0.04.
For the substance GNNQQNY [reference compound], in data set [1], the “Zeta pot. / mV” value is reported as -6.6 mV and the “Zeta-Potential / mV” value is -6.62 mV. Also, in data set [2], the “Count Rate / kcps” value is 37 kcps. Also, in data set [3], the “Log10 Infection Rel EF-C” value is reported as -1.28 and the “Inf. rel. EF-C” value is 0.05.
For GQTVTK [reference compound], in data set [1], the “Zeta pot. / mV” value is -5.3 mV and the “Zeta-Potential / mV” value is listed as -5.26 mV. Moreover, the “Count Rate / kcps” value in data set [2] was found to be 34 kcps. Also, in data set [3], the “Log10 Infection Rel EF-C” value is on record as -1.25 and the “Inf. rel. EF-C” value was 0.06.
Regarding IIKIIK [reference compound], in data set [1], the “Zeta pot. / mV” value was -7.0 mV and the “Zeta-Potential / mV” value is -7 mV. In data set [2], the “Count Rate / kcps” value came out at 4 kcps. For the same substance, in data set [3], the “Log10 Infection Rel EF-C” value was -1.1 and the “Inf. rel. EF-C” value worked out at 0.08.
Regarding NSGAITIG-NH2 [reference compound], in data set [1], the “Zeta pot. / mV” value is -8.4 mV and the “Zeta-Potential / mV” value was -8.45 mV. The “Count Rate / kcps” value in data set [2] is on record as 20 kcps. Further, in data set [3], the “Log10 Infection Rel EF-C” value is recorded as -1.26 and the “Inf. rel. EF-C” value stood at 0.05.
With RCELARTLKR [reference compound], in data set [1], the “Zeta pot. / mV” value is -0.9 mV and the “Zeta-Potential / mV” value was -0.85 mV. Moreover, in data set [2], the “Count Rate / kcps” value was 78 kcps. Besides, in data set [3], the “Log10 Infection Rel EF-C” value was -1.06 and the “Inf. rel. EF-C” value was 0.09.
Consider RIRIQIC [PS07], for which, in data set [1], the “Zeta Pot. / mV” value came to 16 mV and the “Zeta category ( +1 = if > 4 mV;-1 = if < -4 mV; 0 = -4mV to 4 mV)” value is 1 (+1 = if > 4 mV). For the same substance, the “Zeta Count Rate Category” value in data set [2] (category 1 / 0, no key given) was determined as 1. Moreover, the “Zeta Count Rate / kcps” value in data set [2] (derived count rate of scattered light) was found to be 191.1 kcps.
With VLYVGSKT [reference compound], in data set [1], the “Zeta pot. / mV” value is reported as -9.1 mV and the “Zeta-Potential / mV” value was -9.07 mV. For the same substance, the “Count Rate / kcps” value in data set [2] is on record as 24 kcps. Besides, in data set [3], the “Log10 Infection Rel EF-C” value is reported as -1.24 and the “Inf. rel. EF-C” value amounted to 0.06.
For VQIVYK [reference compound], in data set [1], the “Zeta pot. / mV” value is reported as -2.7 mV and the “Zeta-Potential / mV” value is listed as -2.66 mV. For the same substance, in data set [2], the “Count Rate / kcps” value came out at 26 kcps. Besides, in data set [3], the “Log10 Infection Rel EF-C” value is -1.17 and the “Inf. rel. EF-C” value came to 0.07.
